pEC50: −log10 of the molar value.
system: HBV rcDNA in HepDE19 cells; assay: HepDE19 assay with bDNA quantitation of HBV rcDNA; assay type: cell-based, hepatitis B virus; settings: HepDE19 assay, inhibition of rcDNA formation, bDNA quantitation; read-out: DE-19bDNA EC50

First: Cc1cc(F)cc2[nH]c(C(=O)N(C)C3CNCc4[nH]c(=O)c5cc(F)c(F)cc5c43)cc12 (single isomer, unassigned) [Compound 458, N-(8,9-difluoro-6-oxo-1,2,3,4,5,6-hexahydrobenzo[c][1,7]naphthyridin-1-yl)-6-fluoro-N,4-dimethyl-1H-indole-2-carboxamide]
Second: CN(C(=O)c1ccc2c(c1)CCC2)C1CNCc2[nH]c(=O)c3cc(F)c(F)cc3c21 (single isomer, unassigned) [Compound 472, N-(8,9-difluoro-6-oxo-1,2,3,4,5,6-hexahydrobenzo[c][1,7]naphthyridin-1-yl)-N-methyl-2,3-dihydro-1H-indene-5-carboxamide]
The pEC50 of the first is 2.22 log units lower: 5.18 for the first, 7.40 for the second. The second is the more potent here.

Going from `CN(C(=O)c1cc2c(F)cccn2c1)C1COCc2[nH]c(=O)c3cc(F)c(F)cc3c21` (single isomer, unassigned) [Compound 10, N-(8,9-Difluoro-6-oxo-1,4,5,6-tetrahydro-2H-pyrano[3,4-c]isoquinolin-1-yl)-8-fluoro-N-methylindolizine-2-carboxamide] to `CN(C(=O)c1cc2c(Cl)cccc2[nH]1)C1COCc2[nH]c(=O)c3cc(F)ccc3c21` (single isomer, unassigned) [Compound 425, 4-Chloro-N-(8-fluoro-6-oxo-1,4,5,6-tetrahydro-2H-pyrano[3,4-c]isoquinolin-1-yl)-N-methyl-1H-indole-2-carboxamide], the pEC50 falls from 8.00 to 7.70 (0.30 log units). The first is the more potent here.

same assay, conditions: Hepatitis B virus, HepDE19, HepDE19 assay, inhibition of rcDNA formation, bDNA quantitation; read-out: DE-19bDNA EC50

First: CN(C(=O)c1cc2cccnn2c1)[C@@H]1COCc2[nH]c(=O)c3cc(F)c(F)cc3c21 [Compound 65, (S)-N-(8,9-Difluoro-6-oxo-1,4,5,6-tetrahydro-2H-pyrano[3,4-c]isoquinolin-1-yl)-N-methylpyrrolo[1,2-b]pyridazine-6-carboxamide]
Second: CN(C(=O)c1ccccc1)[C@@H]1COCc2[nH]c(=O)c3cc(F)c(F)cc3c21 [Compound 91, (S)-N-(8,9-Difluoro-6-oxo-1,4,5,6-tetrahydro-2H-pyrano[3,4-c]isoquinolin-1-yl)-N-methylbenzamide]
The pEC50 of the first is 0.82 log units higher: 6.82 for the first, 6.00 for the second. The first is the more potent here.

Compared with `Cc1cccc2[nH]c(C(=O)N(C)[C@@H]3CCCc4[nH]c(=O)c5cc(F)ccc5c43)cc12` [Compound 491, (R)-N-(8-fluoro-6-oxo-1,2,3,4,5,6-hexahydrophenanthridin-1-y1)-N,4-dimethyl-1H-indole-2-carboxamide], `CN(C(=O)c1cc2cc(F)c(C(F)F)cc2[nH]1)[C@@H]1CCCc2[nH]c(=O)c3cc(F)ccc3c21` [Compound 479, (R)-6-(difluoromethyl)-5-fluoro-N-(8-fluoro-6-oxo-1,2,3,4,5,6-hexahydrophenanthridin-1-yl)-N-methyl-1H-indole-2-carboxamide] is 0.30 log units lower in pEC50: 7.70 for the first, 7.40 for the second.

Compared with `CN(C(=O)c1cc2cc(C#N)ccc2[nH]1)[C@@H]1COCc2[nH]c(=O)c3cc(F)c(F)cc3c21` [Compound 345, (S)-5-Cyano-N-(8,9-difluoro-6-oxo-1,4,5,6-tetrahydro-2H-pyrano[3,4-c]isoquinolin-1-yl)-N-methyl-1H-indole-2-carboxamide], `CN(C(=O)c1cc2sc(Cl)cc2[nH]1)[C@@H]1COCc2[nH]c(=O)c3cc(F)c(F)cc3c21` [Compound 349, (S)-2-Chloro-N-(8,9-difluoro-6-oxo-1,4,5,6-tetrahydro-2H-pyrano[3,4-c]isoquinolin-1-yl)-N-methyl-4H-thieno[3,2-b]pyrrole-5-carboxamide] is 0.48 log units higher in pEC50: 7.52 for the first, 8.00 for the second.

Compared with `CN(C(=O)c1ccc(C(F)F)c(F)c1)[C@@H]1COCc2[nH]c(=O)c3cc(F)c(F)cc3c21` [Compound 110, (S)-N-(8,9-Difluoro-6-oxo-1,4,5,6-tetrahydro-2H-pyrano[3,4-c]isoquinolin-1-yl)-4-(difluoromethyl)-3-fluoro-N-methylbenzamide], `CN(C(=O)c1cccc(F)c1)[C@@H]1COCc2[nH]c(=O)c3cc(F)c(F)cc3c21` [Compound 127, (S)-N-(8,9-Difluoro-6-oxo-1,4,5,6-tetrahydro-2H-pyrano[3,4-c]isoquinolin-1-yl)-3-fluoro-N-methylbenzamide] is 1.58 log units lower in pEC50: 8.00 for the first, 6.42 for the second.

Compared with `CN(C(=O)c1cccc(Br)c1)[C@@H]1COCc2[nH]c(=O)c3cc(F)c(F)cc3c21` [Compound 129, (S)-3-Bromo-N-(8,9-difluoro-6-oxo-1,4,5,6-tetrahydro-2H-pyrano[3,4-c]isoquinolin-1-yl)-N-methylbenzamide], `CN(C(=O)c1ccc(Cl)c(Cl)c1)[C@@H]1COCc2[nH]c(=O)c3cc(F)c(F)cc3c21` [Compound 361, (S)-3,4-Dichloro-N-(8,9-difluoro-6-oxo-1,4,5,6-tetrahydro-2H-pyrano[3,4-c]isoquinolin-1-yl)-N-methylbenzamide] is 0.95 log units higher in pEC50: 7.05 for the first, 8.00 for the second. The second is the more potent here.

Going from `CN(C(=O)c1ccc2ccc(Cl)n2c1)[C@@H]1COCc2[nH]c(=O)c3cc(F)c(F)cc3c21` [Compound 366, (S)-3-Chloro-N-(8,9-difluoro-6-oxo-1,4,5,6-tetrahydro-2H-pyrano[3,4-c]isoquinolin-1-yl)-N-methylindolizine-6-carboxamide] to `CN(C(=O)c1ccc(S(C)(=O)=O)cc1)[C@@H]1COCc2[nH]c(=O)c3cc(F)c(F)cc3c21` [Compound 295, (S)-N-(8,9-Difluoro-6-oxo-1,4,5,6-tetrahydro-2H-pyrano[3,4-c]isoquinolin-1-yl)-N-methyl-4-(methylsulfonyl)benzamide], the pEC50 falls from 7.00 to 6.46 (0.54 log units).

Going from `CN(C(=O)[C@@H](O)Cc1ccccc1)[C@@H]1COCc2[nH]c(=O)c3cc(F)c(F)cc3c21` [Compound 87, (S)-N-((S)-8,9-Difluoro-6-oxo-1,4,5,6-tetrahydro-2H-pyrano[3,4-c]isoquinolin-1-yl)-2-hydroxy-N-methyl-3-phenylpropanamide] to `CN(C(=O)c1cc2cc(F)cnc2[nH]1)[C@@H]1COCc2[nH]c(=O)c3cc(F)c(F)cc3c21` [Compound 190, (S)-N-(8,9-Difluoro-6-oxo-1,4,5,6-tetrahydro-2H-pyrano[3,4-c]isoquinolin-1-yl)-5-fluoro-N-methyl-1H-pyrrolo[2,3-b]pyridine-2-carboxamide], the pEC50 rises from 5.49 to 6.48 (0.99 log units). The second is the more potent here.

First: CCc1cc(F)cc2[nH]c(C(=O)N(C)[C@@H]3COCc4[nH]c(=O)c5cc(F)c(F)cc5c43)cc12 [Compound 342, (S)-N-(8,9-Difluoro-6-oxo-1,4,5,6-tetrahydro-2H-pyrano[3,4-c]isoquinolin-1-yl)-4-ethyl-6-fluoro-N-methyl-1H-indole-2-carboxamide]
Second: CN(C(=O)c1cc2c(Cl)nc(Cl)cc2[nH]1)[C@@H]1COCc2[nH]c(=O)c3cc(F)c(F)cc3c21 [Compound 410, (S)-4,6-Dichloro-N-(8,9-difluoro-6-oxo-1,4,5,6-tetrahydro-2H-pyrano[3,4-c]isoquinolin-1-yl)-N-methyl-1H-pyrrolo[3,2-c]pyridine-2-carboxamide]
The pEC50 of the first is 0.60 log units higher: 8.00 for the first, 7.40 for the second.

Going from `CN(C(=O)c1cc2sc(Cl)cc2[nH]1)C1COCc2[nH]c(=O)c3cc(F)ccc3c21` (racemic) [Compound 452, 2-Chloro-N-(8-fluoro-6-oxo-1,4,5,6-tetrahydro-2H-pyrano[3,4-c]isoquinolin-1-yl)-N-methyl-4H-thieno[3,2-b]pyrrole-5-carboxamide] to `CN(Cc1cc2cc(F)c(F)cc2[nH]1)[C@@H]1COCc2[nH]c(=O)c3cc(F)c(F)cc3c21` [Compound 494, (S)-1-(((5,6-difluoro-1H-indol-2-yl)methyl)(methyl)amino)-8,9-difluoro-1,5-dihydro-2H-pyrano[3,4-c]isoquinolin-6(4H)-one], the pEC50 falls from 7.10 to 5.82 (1.28 log units).

Reference: US20240228504A1, “SUBSTITUTED TRICYCLIC AMIDES, ANALOGUES THEREOF, AND METHODS USING SAME” (Arbutus Biopharma Corporation, priority 2020, published 2024)
